The compounds below were run against T1, Leukotriene A-4 hydrolase (Homo sapiens, UniProt P09960) (assay: Homogenous Time Resolved Fluorescence Assay).
T1 sequence (P09960 whole entry): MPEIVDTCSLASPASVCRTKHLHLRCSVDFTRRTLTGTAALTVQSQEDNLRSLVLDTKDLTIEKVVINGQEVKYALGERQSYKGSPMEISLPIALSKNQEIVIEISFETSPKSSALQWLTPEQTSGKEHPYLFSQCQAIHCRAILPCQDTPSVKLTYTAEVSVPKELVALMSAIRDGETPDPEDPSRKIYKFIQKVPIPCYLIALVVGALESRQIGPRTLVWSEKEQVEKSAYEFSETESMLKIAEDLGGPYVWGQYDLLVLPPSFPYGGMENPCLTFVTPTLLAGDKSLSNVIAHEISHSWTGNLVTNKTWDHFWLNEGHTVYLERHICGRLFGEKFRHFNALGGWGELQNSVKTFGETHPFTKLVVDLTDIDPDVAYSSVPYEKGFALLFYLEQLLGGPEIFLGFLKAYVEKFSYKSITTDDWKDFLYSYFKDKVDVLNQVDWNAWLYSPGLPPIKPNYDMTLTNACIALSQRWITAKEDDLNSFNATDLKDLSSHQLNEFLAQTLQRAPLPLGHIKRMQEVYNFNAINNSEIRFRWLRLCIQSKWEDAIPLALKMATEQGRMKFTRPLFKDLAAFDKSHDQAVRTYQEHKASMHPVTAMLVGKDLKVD
Description: The hydrolase-homogeneous time resolved fluorescence assay is a two-step assay that measures the hydrolysis of LTA4 to LTB4 by analyzing the amount of LTB4 produced. The first step involves the enzymatic conversion of LTA4 to LTB4 and the second step involves the quantification of the LTB4 formed with a homogeneous time resolved fluorescence assay.

Row | Structure (SMILES) | IC50
1 | COc1cc(O)cc(CCc2ccc(O)cc2)c1 [US20240398793, Compound 6] | 6.4 µM
2 | O=c1c(-c2ccc(O)cc2)coc2cc(O)ccc12 [US20240398793, Compound 11] | 15 µM
3 | O=C(Cc1ccc(O)cc1)c1ccc(O)cc1O [US20240398793, Compound 10] | 34.2 µM
4 | O=c1c(-c2ccccc2)coc2cc(O)ccc12 [US20240398793, Compound 13] | 48.2 µM
5 | COc1cc(O)cc(/C=C/c2ccc(O)cc2)c1 [US20240398793, Compound 5] | 3.9 µM
6 | CC(=O)Oc1ccc(/C=C/c2cc(OC(C)=O)cc(OC(C)=O)c2)cc1 [US20240398793, Compound 4] | 38.6 µM
7 | CCOc1cc(O)cc(CCc2ccc(O)cc2)c1 [US20240398793, Compound 7] | 3.2 µM

Stronger by IC50, values ahead:

Row | IC50 | Structure (SMILES)
8 | 1.7 µM | COc1cc(O)cc(CCc2cccc(O)c2)c1 [Batatasin III (4)]
9 | 1.2 µM | Cc1ccc2c(=O)c(-c3ccc(O)cc3)coc2c1O [US20240398793, Compound 15]
10 | 0.5 µM | COc1cc(O)cc(CCc2ccccc2O)c1 [US20240398793, Compound 9]
